Experimental data from patent publication US8575158B2, “1-phenyl-substituted heterocyclyl derivatives and their use as prostaglandin D2 receptor modulators” (Actelion Pharmaceuticals Ltd., priority 2010, dated 2013).
pIC50: −log10 of the molar value.

Biological target: T1, hCRTH2 receptor (Homo sapiens, UniProt Q9Y5Y4)
T1 construct: expressed in transfected cells; host or cells: HEK293
T1 sequence (Q9Y5Y4 1-395): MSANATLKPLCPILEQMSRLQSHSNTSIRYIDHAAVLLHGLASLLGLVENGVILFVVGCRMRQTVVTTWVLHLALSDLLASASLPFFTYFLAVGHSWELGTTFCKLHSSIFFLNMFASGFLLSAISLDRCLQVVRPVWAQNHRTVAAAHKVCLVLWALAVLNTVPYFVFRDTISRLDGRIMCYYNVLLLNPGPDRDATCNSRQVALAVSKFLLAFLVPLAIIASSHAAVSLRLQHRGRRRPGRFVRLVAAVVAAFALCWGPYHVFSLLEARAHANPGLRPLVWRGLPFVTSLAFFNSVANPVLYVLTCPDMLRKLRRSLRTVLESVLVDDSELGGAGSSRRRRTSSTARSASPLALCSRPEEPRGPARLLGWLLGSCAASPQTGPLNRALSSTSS
Test: Radioligand displacement assay (3H-PGD2) on hCRTH2 receptor membranes
Type: binding
Conditions: antagonistic activity, 3H-PGD2 radioligand displacement, HEK293-hCRTH2 membranes

| SMILES | pIC50 |
| --- | --- |
| Cn1nc(COC(=O)N2CCc3c(ccc(F)c3F)[C@H]2c2cc(Cl)ccc2OCC(=O)O)c2ccccc21 [Example 321, (S)-1-(2-Carboxymethoxy-5-chloro-phenyl)-5,6-difluoro-3,4-dihydro-1H-isoquinoline-2-carboxylic acid 1-methyl-1H-indazol-3-ylmethyl ester] | 8.74 |
| O=C(O)COc1ccc(Cl)cc1[C@@H]1c2ccc(F)c(F)c2CCN1C(=O)OCn1ncc2ccccc21 [Example 322, (S)-1-(2-Carboxymethoxy-5-chloro-phenyl)-5,6-difluoro-3,4-dihydro-1H-isoquinoline-2-carboxylic acid indazol-1-ylmethyl ester] | 9.28 |
| O=C(O)COc1ccc(Cl)cc1[C@@H]1c2ccc(F)c(F)c2CCN1C(=O)OCc1noc2ccccc12 [Example 323, (S)-1-(2-Carboxymethoxy-5-chloro-phenyl)-5,6-difluoro-3,4-dihydro-1H-isoquinoline-2-carboxylic acid benzo[d]isoxazol-3-ylmethyl ester] | 8.92 |
| O=C(O)COc1ccc(Cl)cc1[C@@H]1c2ccc(F)cc2CCN1C(=O)OCc1nccs1 [Example 324, (S)-1-(2-Carboxymethoxy-5-chloro-phenyl)-6-fluoro-3,4-dihydro-1H-isoquinoline-2-carboxylic acid thiazol-2-ylmethyl ester] | 8.20 |
| Cc1csc(COC(=O)N2CCc3cc(F)ccc3[C@H]2c2cc(Cl)ccc2OCC(=O)O)n1 [Example 327, (S)-1-(2-Carboxymethoxy-5-chloro-phenyl)-6-fluoro-3,4-dihydro-1H-isoquinoline-2-carboxylic acid 4-methyl-thiazol-2-ylmethyl ester] | 8.47 |
| Cc1cc(COC(=O)N2CCc3cc(F)ccc3[C@H]2c2cc(Cl)ccc2OCC(=O)O)on1 [Example 330, (S)-1-(2-Carboxymethoxy-5-chloro-phenyl)-6-fluoro-3,4-dihydro-1H-isoquinoline-2-carboxylic acid 3-methyl-isoxazol-5-ylmethyl ester] | 7.97 |
| O=C(O)COc1ccc(Cl)cc1[C@@H]1c2ccc(F)cc2CCN1C(=O)OCc1cnccn1 [Example 332, (S)-1-(2-Carboxymethoxy-5-chloro-phenyl)-6-fluoro-3,4-dihydro-1H-isoquinoline-2-carboxylic acid pyrazin-2-ylmethyl ester] | 8.12 |
| O=C(O)COc1ccc(Cl)cc1[C@@H]1c2ccc(F)cc2CCN1C(=O)OCc1cncnc1 [Example 334, (S)-1-(2-Carboxymethoxy-5-chloro-phenyl)-6-fluoro-3,4-dihydro-1H-isoquinoline-2-carboxylic acid pyrimidin-5-ylmethyl ester] | 8.31 |
| O=C(O)COc1ccc(Cl)cc1[C@@H]1c2ccc(F)cc2CCN1C(=O)OCCc1ccccc1 [Example 335, (S)-1-(2-Carboxymethoxy-5-chloro-phenyl)-6-fluoro-3,4-dihydro-1H-isoquinoline-2-carboxylic acid phenethyl ester] | 7.88 |
| O=C(O)COc1ccc(Cl)cc1[C@@H]1c2ccc(F)cc2CCN1C(=O)OCCc1cccc(F)c1 [Example 336, (S)-1-(2-Carboxymethoxy-5-chloro-phenyl)-6-fluoro-3,4-dihydro-1H-isoquinoline-2-carboxylic acid 2-(3-fluoro-phenyl)-ethyl ester] | 7.94 |
| Cc1cc(COC(=O)N2CCc3cc(F)ccc3[C@H]2c2cc(Cl)ccc2OCC(=O)O)n(C)n1 [Example 338, (S)-1-(2-Carboxymethoxy-5-chloro-phenyl)-6-fluoro-3,4-dihydro-1H-isoquinoline-2-carboxylic acid 2,5-dimethyl-2H-pyrazol-3-ylmethyl ester] | 8.50 |
| Cn1cncc1COC(=O)N1CCc2cc(F)ccc2[C@H]1c1cc(Cl)ccc1OCC(=O)O [Example 340, (S)-1-(2-Carboxymethoxy-5-chloro-phenyl)-6-fluoro-3,4-dihydro-1H-isoquinoline-2-carboxylic acid 3-methyl-3H-imidazol-4-ylmethyl ester] | 8.29 |
| Cc1cc(C)n(CCOC(=O)N2CCc3cc(F)ccc3[C@H]2c2cc(Cl)ccc2OCC(=O)O)n1 [Example 341, (S)-1-(2-Carboxymethoxy-5-chloro-phenyl)-6-fluoro-3,4-dihydro-1H-isoquinoline-2-carboxylic acid 2-(3,5-dimethyl-pyrazol-1-yl)-ethyl ester] | 7.95 |
| O=C(O)COc1ccc(Cl)cc1[C@@H]1c2ccc(F)cc2CCN1C(=O)OCc1nc2ccccc2o1 [Example 345, (S)-1-(2-Carboxymethoxy-5-chloro-phenyl)-6-fluoro-3,4-dihydro-1H-isoquinoline-2-carboxylic acid benzooxazol-2-ylmethyl ester] | 7.91 |
| O=C(O)COc1ccc(Cl)cc1[C@@H]1c2ccc(F)cc2CCN1C(=O)OCc1noc2ccccc12 [Example 348, (S)-1-(2-Carboxymethoxy-5-chloro-phenyl)-6-fluoro-3,4-dihydro-1H-isoquinoline-2-carboxylic acid benzo[d]isoxazol-3-ylmethyl ester] | 9.40 |

More lines, now with the values ahead:

| pIC50 | SMILES |
| --- | --- |
| 7.67 | Cc1ncsc1CCOC(=O)N1CCc2cc(F)ccc2[C@H]1c1cc(Cl)ccc1OCC(=O)O [Example 325, (S)-1-(2-Carboxymethoxy-5-chloro-phenyl)-6-fluoro-3,4-dihydro-1H-isoquinoline-2-carboxylic acid 2-(4-methyl-thiazol-5-yl)-ethyl ester] |
| 8.06 | Cc1cnc(COC(=O)N2CCc3cc(F)ccc3[C@H]2c2cc(Cl)ccc2OCC(=O)O)s1 [Example 326, (S)-1-(2-Carboxymethoxy-5-chloro-phenyl)-6-fluoro-3,4-dihydro-1H-isoquinoline-2-carboxylic acid 5-methyl-thiazol-2-ylmethyl ester] |
| 8.49 | Cc1ncc(COC(=O)N2CCc3cc(F)ccc3[C@H]2c2cc(Cl)ccc2OCC(=O)O)s1 [Example 328, (S)-1-(2-Carboxymethoxy-5-chloro-phenyl)-6-fluoro-3,4-dihydro-1H-isoquinoline-2-carboxylic acid 2-methyl-thiazol-5-ylmethyl ester] |
| 8.23 | Cc1nc(COC(=O)N2CCc3cc(F)ccc3[C@H]2c2cc(Cl)ccc2OCC(=O)O)cs1 [Example 329, (S)-1-(2-Carboxymethoxy-5-chloro-phenyl)-6-fluoro-3,4-dihydro-1H-isoquinoline-2-carboxylic acid 2-methyl-thiazol-4-ylmethyl ester] |
| 8.14 | Cc1conc1COC(=O)N1CCc2cc(F)ccc2[C@H]1c1cc(Cl)ccc1OCC(=O)O [Example 331, (S)-1-(2-Carboxymethoxy-5-chloro-phenyl)-6-fluoro-3,4-dihydro-1H-isoquinoline-2-carboxylic acid 4-methyl-isoxazol-3-ylmethyl ester] |
| 7.34 | O=C(O)COc1ccc(Cl)cc1[C@@H]1c2ccc(F)cc2CCN1C(=O)OCc1ccncn1 [Example 333, (S)-1-(2-Carboxymethoxy-5-chloro-phenyl)-6-fluoro-3,4-dihydro-1H-isoquinoline-2-carboxylic acid pyrimidin-4-ylmethyl ester] |
| 8.44 | Cn1nccc1COC(=O)N1CCc2cc(F)ccc2[C@H]1c1cc(Cl)ccc1OCC(=O)O [Example 337, (S)-1-(2-Carboxymethoxy-5-chloro-phenyl)-6-fluoro-3,4-dihydro-1H-isoquinoline-2-carboxylic acid 2-methyl-2H-pyrazol-3-ylmethyl ester] |
| 7.94 | CCn1nc(C)cc1CCOC(=O)N1CCc2cc(F)ccc2[C@H]1c1cc(Cl)ccc1OCC(=O)O [Example 339, (S)-1-(2-Carboxymethoxy-5-chloro-phenyl)-6-fluoro-3,4-dihydro-1H-isoquinoline-2-carboxylic acid 2-(2-ethyl-5-methyl-2H-pyrazol-3-yl)-ethyl ester] |
| 7.75 | Cc1cnn(COC(=O)N2CCc3cc(F)ccc3[C@H]2c2cc(Cl)ccc2OCC(=O)O)c1 [Example 342, (S)-1-(2-Carboxymethoxy-5-chloro-phenyl)-6-fluoro-3,4-dihydro-1H-isoquinoline-2-carboxylic acid 4-methyl-pyrazol-1-ylmethyl ester] |
| 6.58 | Cc1nc2ccccc2n1CCOC(=O)N1CCc2cc(F)ccc2[C@H]1c1cc(Cl)ccc1OCC(=O)O [Example 343] |
| 7.42 | O=C(O)COc1ccc(Cl)cc1[C@@H]1c2ccc(F)cc2CCN1C(=O)OCc1nc2ccccc2s1 [Example 344, (S)-1-(2-Carboxymethoxy-5-chloro-phenyl)-6-fluoro-3,4-dihydro-1H-isoquinoline-2-carboxylic acid benzothiazol-2-ylmethyl ester] |
| 8.94 | Cn1nc(COC(=O)N2CCc3cc(F)ccc3[C@H]2c2cc(Cl)ccc2OCC(=O)O)c2ccccc21 [Example 346, (S)-1-(2-Carboxymethoxy-5-chloro-phenyl)-6-fluoro-3,4-dihydro-1H-isoquinoline-2-carboxylic acid 1-methyl-1H-indazol-3-ylmethyl ester] |
| 9.06 | O=C(O)COc1ccc(Cl)cc1[C@@H]1c2ccc(F)cc2CCN1C(=O)OCn1ncc2ccccc21 [Example 347, (S)-1-(2-Carboxymethoxy-5-chloro-phenyl)-6-fluoro-3,4-dihydro-1H-isoquinoline-2-carboxylic acid indazol-1-ylmethyl ester] |
| 8.05 | O=C(O)COc1ccc(Cl)cc1[C@@H]1c2ccc(F)c(F)c2CCN1C(=O)OCc1ccccc1F [Example 349, (S)-1-(2-Carboxymethoxy-5-chloro-phenyl)-5,6-difluoro-3,4-dihydro-1H-isoquinoline-2-carboxylic acid 2-fluoro-benzyl ester] |
